Measured values published in the supplement of paper PMC10307832.

Assays:
Assay in all cases: relative viability (nuclei count vs DMSO), 5 days (fraction); higher = more cells survive
UMC-11 = system: UMC-11
Procedure, shortened: (§1)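 For relative viability, nuclei counts in treated wells were divided by those in vehicle wells. Lung cancer cell lines had been pin-tool dosed in 1536-well plates the day after seeding and cultured for 5 days, then fixed and stained in one step (final 0.05% Triton X-100, 1% formaldehyde, 1 ug/ml Hoechst) and imaged at 4×. Doses were one drug alone or a fixed anchor-drug dose plus five library-drug doses (not always all listed) in √10 steps, and values are duplicate-plate medians.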

NCI-H2023 = system: NCI-H2023
Procedure, shortened: as §1

NCI-H1915 = system: NCI-H1915
Procedure, shortened: as §1

HCC-44 = system: HCC-44
Procedure, shortened: as §1

LCLC-97TM1 = system: LCLC-97TM1
Procedure, shortened: as §1

SW 1573 = system: SW 1573
Procedure, shortened: as §1

NCI-H1734 = system: NCI-H1734
Procedure, shortened: as §1

NCI-H2347 = system: NCI-H2347
Procedure, shortened: as §1

EPLC-272H = system: EPLC-272H
Procedure, shortened: as §1

NCI-H1975 = system: NCI-H1975
Procedure, shortened: as §1

NCI-H2342 = system: NCI-H2342
Procedure, shortened: as §1

NCI-H1395 = system: NCI-H1395
Procedure, shortened: as §1

NCI-H838 = system: NCI-H838
Procedure, shortened: as §1

HCC-15 = system: HCC-15
Procedure, shortened: as §1

A-427 = system: A-427
Procedure, shortened: as §1

NCI-H520 = system: NCI-H520
Procedure, shortened: as §1

NCI-H2405 = system: NCI-H2405
Procedure, shortened: as §1

COR-L 105 = system: COR-L 105
Procedure, shortened: as §1

LC-2-ad = system: LC-2-ad
Procedure, shortened: as §1

SW 900 = system: SW 900
Procedure, shortened: as §1

CAL-12T = system: CAL-12T
Procedure, shortened: as §1

NCI-H1792 = system: NCI-H1792
Procedure, shortened: as §1

Compound `CN1CCN(CCOc2cc(OC3CCOCC3)c3c(Nc4c(Cl)ccc5c4OCO5)ncnc3c2)CC1` [Saracatinib] + O=C(c1cc(Cc2n[nH]c(=O)c3ccccc23)ccc1F)N1CCN(C(=O)C2CC2)CC1 [Olaparib] (partner 8 µM) has a relative viability (UMC-11; first compound 0.02 µM) of 0.42, a relative viability (UMC-11; first compound 0.2 µM) of 0.306 and a relative viability (UMC-11; first compound 0.6325 µM) of 0.362. The relative viability (UMC-11; first compound 2 µM) was 0.351, the relative viability (NCI-H2023; first compound 0.02 µM) was 0.503 and the relative viability (NCI-H2023; first compound 0.6325 µM) was 0.417. It also gave a relative viability (NCI-H2023; first compound 2 µM) of 0.393, a relative viability (NCI-H1915; first compound 0.02 µM) of 0.256 and a relative viability (NCI-H1915; first compound 0.2 µM) of 0.244. For the same compound, the relative viability (NCI-H1915; first compound 0.6325 µM) was 0.281, the relative viability (NCI-H1915; first compound 2 µM) was 0.225 and the relative viability (HCC-44; first compound 0.02 µM) was 0.979. The relative viability (HCC-44; first compound 0.2 µM) was 0.863, the relative viability (HCC-44; first compound 0.6325 µM) was 0.97 and the relative viability (HCC-44; first compound 2 µM) was 0.976. The relative viability (LCLC-97TM1; first compound 0.02 µM) was 0.494, the relative viability (LCLC-97TM1; first compound 0.2 µM) was 0.291 and the relative viability (LCLC-97TM1; first compound 0.6325 µM) was 0.567. The relative viability (LCLC-97TM1; first compound 2 µM) was 0.32, the relative viability (SW 1573; first compound 0.02 µM) was 0.502 and the relative viability (SW 1573; first compound 0.2 µM) was 0.382. For the same compound, the relative viability (SW 1573; first compound 0.6325 µM) was 0.448, the relative viability (SW 1573; first compound 2 µM) was 0.384 and the relative viability (NCI-H1734; first compound 0.02 µM) was 0.592. For the same compound, the relative viability (NCI-H1734; first compound 0.6325 µM) was 0.515, the relative viability (NCI-H1734; first compound 2 µM) was 0.547 and the relative viability (NCI-H2347; first compound 0.02 µM) was 0.571. It also gave a relative viability (NCI-H2347; first compound 0.2 µM) of 0.428, a relative viability (NCI-H2347; first compound 0.6325 µM) of 0.622 and a relative viability (NCI-H2347; first compound 2 µM) of 0.551. The relative viability (EPLC-272H; first compound 0.02 µM) was 0.946, the relative viability (EPLC-272H; first compound 0.2 µM) was 0.714 and the relative viability (EPLC-272H; first compound 0.6325 µM) was 0.658. For the same compound, the relative viability (EPLC-272H; first compound 2 µM) was 0.426, the relative viability (NCI-H1975; first compound 0.02 µM) was 0.787 and the relative viability (NCI-H1975; first compound 0.2 µM) was 0.793. For the same compound, the relative viability (NCI-H1975; first compound 0.6325 µM) was 0.804, the relative viability (NCI-H1975; first compound 2 µM) was 0.517 and the relative viability (NCI-H2342; first compound 0.02 µM) was 0.55. It also gave a relative viability (NCI-H2342; first compound 0.2 µM) of 0.312, a relative viability (NCI-H2342; first compound 0.6325 µM) of 0.434 and a relative viability (NCI-H2342; first compound 2 µM) of 0.451. For the same compound, the relative viability (NCI-H1395; first compound 0.02 µM) was 0.497, the relative viability (NCI-H1395; first compound 0.2 µM) was 0.488 and the relative viability (NCI-H1395; first compound 0.6325 µM) was 0.409. It also gave a relative viability (NCI-H1395; first compound 2 µM) of 0.436, a relative viability (NCI-H838; first compound 0.02 µM) of 0.776 and a relative viability (NCI-H838; first compound 0.2 µM) of 0.643. It also gave a relative viability (NCI-H838; first compound 0.6325 µM) of 0.656, a relative viability (NCI-H838; first compound 2 µM) of 0.505 and a relative viability (HCC-15; first compound 0.02 µM) of 0.717. It also gave a relative viability (HCC-15; first compound 0.2 µM) of 0.634, a relative viability (HCC-15; first compound 0.6325 µM) of 0.79 and a relative viability (HCC-15; first compound 2 µM) of 0.752. It also gave a relative viability (A-427; first compound 0.02 µM) of 0.733, a relative viability (A-427; first compound 0.2 µM) of 0.689 and a relative viability (A-427; first compound 0.6325 µM) of 0.715. It also gave a relative viability (A-427; first compound 2 µM) of 0.71, a relative viability (NCI-H520; first compound 0.02 µM) of 0.354 and a relative viability (NCI-H520; first compound 0.2 µM) of 0.327. It also gave a relative viability (NCI-H520; first compound 0.6325 µM) of 0.289, a relative viability (NCI-H520; first compound 2 µM) of 0.243 and a relative viability (NCI-H2405; first compound 0.02 µM) of 0.873. For the same compound, the relative viability (NCI-H2405; first compound 0.2 µM) was 0.84, the relative viability (NCI-H2405; first compound 0.6325 µM) was 0.673 and the relative viability (NCI-H2405; first compound 2 µM) was 0.595. For the same compound, the relative viability (COR-L 105; first compound 0.02 µM) was 0.594, the relative viability (COR-L 105; first compound 0.2 µM) was 0.617 and the relative viability (COR-L 105; first compound 0.6325 µM) was 0.698. It also gave a relative viability (COR-L 105; first compound 2 µM) of 0.698, a relative viability (LC-2-ad; first compound 0.02 µM) of 0.773 and a relative viability (LC-2-ad; first compound 0.2 µM) of 0.636. For the same compound, the relative viability (LC-2-ad; first compound 0.6325 µM) was 0.723, the relative viability (LC-2-ad; first compound 2 µM) was 0.705 and the relative viability (SW 900; first compound 0.02 µM) was 0.831. The relative viability (SW 900; first compound 0.2 µM) was 0.753, the relative viability (SW 900; first compound 0.6325 µM) was 0.784 and the relative viability (SW 900; first compound 2 µM) was 0.643. It also gave a relative viability (CAL-12T; first compound 0.02 µM) of 0.787, a relative viability (CAL-12T; first compound 0.2 µM) of 0.682 and a relative viability (CAL-12T; first compound 0.6325 µM) of 0.825. For the same compound, the relative viability (CAL-12T; first compound 2 µM) was 0.701, the relative viability (NCI-H1792; first compound 0.02 µM) was 0.537 and the relative viability (NCI-H1792; first compound 0.2 µM) was 0.352. It also gave a relative viability (NCI-H1792; first compound 0.6325 µM) of 0.644 and a relative viability (NCI-H1792; first compound 2 µM) of 0.385.
